Measured values as given in publication PMC3841161, “De Novo Design and Synthesis of Ultra-Short Peptidomimetic Antibiotics Having Dual Antimicrobial and Anti-Inflammatory Activities” (PLoS ONE, 2013).
Residues, ends and D or L forms follow the SMILES beside them.

Experiments:
[1] = test system: P. aeruginosa [KCTC 1637]; format: cell-based, Pseudomonas aeruginosa; conditions: broth microdilution, 1% peptone, 18−20 h at 37°C, absorbance at 600 nm
Description: (§1) The antimicrobial activity of the peptides against two Gram-positive bacterial strains and two Gram-negative bacterial strains was examined using the broth microdilution method in sterile 96-well plates. Aliquots (100 µL) of a bacterial suspension at 2×10^6 colony-forming units (CFU)/mL in 1% peptone were added to 100 µL of the peptide solution (serial two-fold dilutions in 1% peptone). After incubation for 18−20 h at 37°C, bacterial growth inhibition was determined by measuring the absorbance at 600 nm with a Microplate Autoreader EL 800 (Bio-Tek Instruments, VT). The minimal inhibitory concentration (MIC) was defined as the minimum peptide concentration inhibited bacteria growth. Two types of Gram-positive bacteria (S. epidermidis [KCTC 1917] and S. aureus [KCTC 1621]) and two types of Gram-negative bacteria (E. coli [KCTC 1682] and P. aeruginosa [KCTC 1637]) were procured from the Korean Collection for Type Cultures (KCTC) at the Korea Research Institute of Bioscience and Biotechnology (KRIBB). MRSA samples (CCARM 3089, CCARM 3090, and CCARM 3095) were obtained from the Culture Collection of Antibiotic-Resistant Microbes (CCARM) at Seoul Women's University (Seoul, Korea).

S. aureus [KCTC 1621] = format: cell-based, Staphylococcus aureus; conditions: broth microdilution, 1% peptone, 18−20 h at 37°C, absorbance at 600 nm
Description: as §1

E. coli [KCTC 1682] = format: cell-based, Escherichia coli; conditions: broth microdilution, 1% peptone, 18−20 h at 37°C, absorbance at 600 nm
Description: as §1

[2] = test system: hRBCs versus four bacterial strains; experiment: Prokaryotic selectivity (therapeutic index, HC10/GM); conditions: ratio of HC10 to GM; 512 µg/mL used for HC10 >256 and 128 µg/mL for MIC >64
Description: (§2) The prokaryotic selectivity of our designed HDAMPs is defined by the therapeutic index (TI) as a measure of the relative safety of the drug. It is a measure of a peptide's capability to differentiate any pathogen from a host cell. The TI value of each peptide was calculated as the ratio of the HC10 (the peptide concentration that produces 10% hemolysis toward hRBCs) to the geometric mean [GM; the geometric mean of the minimal inhibitory concentration (MIC) against four selected bacterial strains]. Larger values of TI correspond to greater prokaryotic selectivity.

[3] = test system: human red blood cells (hRBCs); experiment: Hemolytic activity; format: cell-based; conditions: 4% (v/v) hRBCs in PBS pH 7.4, 1 h at 37°C, absorbance at 405 nm; maximum concentration 256 µg/mL
Description: Hemolytic activity of peptides was tested against hRBCs. Fresh hRBCs were washed three times with phosphate-buffered saline (PBS; 35-mM phosphate buffer containing 150 mM of NaCl, pH 7.4) by centrifugation for 10 min at 1000×g and then re-suspended in PBS. The peptide solutions (serial two-fold dilutions in PBS) were then added to 100 µL of hRBCs in PBS to give a final volume of 200 µL and a final erythrocyte concentration of 4% (v/v). The resulting suspension was incubated with agitation for 1 h at 37°C. The samples were then centrifuged at 1000×g for 5 min, and hemoglobin release was monitored by measuring the absorbance of the supernatant at 405 nm. No hemolysis (blank) and 100% hemolysis controls consisted of hRBCs suspended in PBS and 0.1% Triton X-100, respectively. Percent hemolysis was calculated using the following equation: [drawing 1]

[4] = test system: four bacterial strains (E. coli, P. aeruginosa, S. epidermidis, S. aureus); format: cell-based; conditions: four bacterial strains
Description: as §2, §1

[5] = test system: S. epidermidis [KCTC 1917]; format: cell-based, Staphylococcus epidermidis; conditions: broth microdilution, 1% peptone, 18−20 h at 37°C, absorbance at 600 nm
Description: as §1

[6] = Hydrophobicity by RP-HPLC retention time; format: physicochemical; conditions: measure of hydrophobicity; Vydac C18 analytical column 5 µm, 4.6 mm ×250 mm; linear gradient 0–90% acetonitrile in water, 0.05% TFA, 60 min
Text: A series of Trp (W)/Arg (R)–rich peptides [(WR)3-NH2, (WR)2-NH2 and RWR-NH2], reported as being short and potent antimicrobial peptides, were used as sequence templates, and their antimicrobial and hemolytic activities were compared to seven HDAMPs (Figure 2). Matrix-assisted laser-desorption ionization time-of-flight mass spectrometry (MALDI-TOF MS) was used to verify the molecular weight of both Trp/Arg-rich AMPs and the seven HDAMPs. Human cathelicidin LL-37, a potent antimicrobial and anti-inflammatory peptide, served as a positive control for comparing the antimicrobial, hemolytic, and anti-inflammatory activities. The hydrophobicity of all of the peptides was measured with the use of reverse-phase high-performance liquid chromatography (RP-HPLC) retention time (Rt).
All peptides were prepared by Fmoc SPPS methods using Rink amide with an initial loading of 0.61 mmol/g, unless otherwise noted. Fmoc-Arg(Pbf)-OH and other Fmoc-protected amino acids were purchased from Novabiochem. Resins were swollen in DMF for 45 min prior to synthesis. […] The final purity and hydrophobicity of the peptides (>98%) were assessed by RP-HPLC on an analytical Vydac C18 column (4.6 mm ×25 0 mm, 300 Å, 5 µm particle size, Table 3). The molecular masses of purified peptides were determined using MALDI-TOF MS (Shimadzu, Japan).

trypsin = experiment: Protease stability by radial diffusion assay; format: in vitro ADME; conditions: 5 µL of 10 mg/mL peptide in 25 µL of 0.2-µg/mL trypsin in PBS, 37°C, text: 24 h, method: 6 h
Description: E. coli (KCTC 1682) was grown overnight for 18 h at 37°C in 10 mL of LB broth, and then 10 µl of this culture was inoculated into 10 mL of fresh LB and incubated for an additional 3 h at 37°C to obtain mid-logarithmic-phase organisms. For the radial diffusion assay method, a bacteria suspension (2×10^6 CFU/mL in LB) was mixed with 0.7% agarose. The mixture was poured into a 10-cm petri dish after rapidly dispersing. Five microliters of an aqueous peptide stock solution (10 mg/mL) were added to 25 µL of the 0.2-µg/mL trypsin solution in PBS, respectively, and incubated at 37°C for 6 h. The reaction was stopped by freezing with liquid nitrogen, and then 10-µL aliquots were placed in each circle paper (≈6 mm in diameter) put on the agarose plates and then incubated at 37°C overnight. The diameters of the bacterial clearance zones surrounding the circle paper were measured for the quantitation of inhibitory activities.

Structure (SMILES): N=C(N)NCCC[C@H](NC(=O)[C@H](Cc1c[nH]c2ccccc12)NC(=O)[C@H](CCCNC(=N)N)NC(=O)[C@@H](N)Cc1c[nH]c2ccccc12)C(N)=O [(WR)2-NH2, reference compound] (H-WRWR-NH2)
- Minimal Inhibitory Concentration (MIC) P. aeruginosa [KCTC 1637] [1]: 32 (45.6) µg/mL
- Minimal Inhibitory Concentration (MIC) S. aureus [KCTC 1621] (S. aureus [KCTC 1621]): 32 (45.6) µg/mL
- Minimal Inhibitory Concentration (MIC) E. coli [KCTC 1682] (E. coli [KCTC 1682]): 32 (45.6) µg/mL
- TI (HC10/GM), therapeutic index [2]: 19.7
- % Hemolysis (HC10), peptide concentration that induces 10% hemolysis against human erythrocytes [3]: >256 (>364.5) µg/mL
- GM, geometric mean of the MIC values against four bacterial strains [4]: 26 (37) µg/mL
- Minimal Inhibitory Concentration (MIC) S. epidermidis [KCTC 1917] [5]: 8 (11.4) µg/mL

Structure (SMILES): N=C(N)NCCC[C@H](NC(=O)[C@H](Cc1c[n+](CCCCCCCc2ccccc2)cn1CCCCCCCc1ccccc1)NC(=O)[C@H](CCCNC(=N)N)NC(=O)[C@@H](N)Cc1c[n+](CCCCCCCc2ccccc2)cn1CCCCCCCc1ccccc1)C(N)=O [Tetrameric HDAMP, His((CH2)7C6H5)2-Arg-His((CH2)7C6H5)2-Arg-NH2]
- RP-HPLC retention time (Rt) [6]: 37.7 min

Structure (SMILES): CC[C@H](C)[C@H](NC(=O)CN)C(=O)NCC(=O)N[C@@H](C)C(=O)N[C@H](C(=O)N[C@@H](CC(C)C)C(=O)N[C@@H](CCCCN)C(=O)N[C@H](C(=O)N[C@@H](CC(C)C)C(=O)N[C@H](C(=O)N[C@H](C(=O)NCC(=O)N[C@@H](CC(C)C)C(=O)N1CCC[C@H]1C(=O)N[C@@H](C)C(=O)N[C@@H](CC(C)C)C(=O)N[C@H](C(=O)N[C@@H](CO)C(=O)N[C@@H](Cc1c[nH]c2ccccc12)C(=O)N[C@H](C(=O)N[C@@H](CCCCN)C(=O)N[C@@H](CCCNC(=N)N)C(=O)N[C@@H](CCCCN)C(=O)N[C@@H](CCCNC(=N)N)C(=O)N[C@@H](CCC(N)=O)C(=O)N[C@@H](CCC(N)=O)C(N)=O)[C@@H](C)CC)[C@@H](C)CC)[C@@H](C)O)[C@@H](C)O)C(C)C)C(C)C [melittin]
- antimicrobial activity against E. coli (KCTC 1682) in the presence of trypsin (in words) (trypsin): completely lost their antimicrobial activities
